Laboratory results from US7960556B2, “Thiadiazole derivatives for the treatment of neuro-degenerative diseases” (NV reMYND, priority 2006, dated 2011).

Test system: α-synuclein cytotoxicity in M17-SYNwt cells
Test: α-synuclein cytotoxicity assay: LDH leakage from paraquat-treated M17-SYNwt neuroblastoma cells;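 also: paraquat at 32 mM co-added with compound, 40 h exposure, LDH activity released into the culture medium measured, references are DMSO-only cells and paraquat plus DMSO cells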
Settings: Homo sapiens, Neuroblastoma cell; for Emax: read-out: % Inhib.
Description: An α-synuclein expression plasmid was constructed by sub-cloning the NcoI/XhoI fragment from 212T-SYN(WT) (Griffioen et al., Biochem Biophys Acta (2006) 1762(3):312-318) containing the cDNA of human wild type α-synuclein correspondingly into a standard mammalian expression vector pcDNA3.1 (Invitrogen) resulting into the plasmid pcDNA3.1-SYNwt. Plasmids pcDNA3.1 and pcDNA3.1-SYNwt were transfected to human neuroblastoma cells (ATCC No. CRL-2267) and independent clonal lines with the plasmids stably integrated into the genome were selected. […] Over-expression of α-synuclein in M17-SYNwt cell lines was confirmed by Western analysis.
Due to the high levels of α-synuclein M17-SYNwt cells are exquisitely sensitivity to paraquat, a well-known risk factor of synuclein-dependent neuronal degeneration. In degenerated or dead cells lactate dehydrogenase (LDH) is leaked out of the cells into the extracellular environment due to a loss of plasma-membrane integrity. This principle was used to determine cytotoxicity by quantifying the level of leaked LDH into the growth medium.
The detailed method for determining α-synuclein cytotoxicity was as follows: From appropriate precultures of M17 and M17-SYN cells were seeded at 50,000 cells/cm^2 in Optimem Reduced Serum without phenol red (available from InVitrogen, Cat. 31985-047) supplemented with 5% fetal calf serum, 1 mM sodium pyruvate, 1× non-essential amino acids, 500 μg/ml G418 0,5× antibiotic/antimycotic. After 3 hours of incubation at 37° C./5% CO2 paraquat was added to the cells (final concentration of 32 mM), together with the test compound and the cells were further incubated for 40 hours. Subsequently, LDH activity was determined using Promega Cytotox 96 Non-Radioactive cytotoxicity assay, (Cat. G1780) according the instructions of the supplier.
In these experiments, the control group consisted of M17-SYNwt cells treated with DMSO, the untreated paraquat group consisted of M17-SYNwt cells treated with paraquat and DMSO, and the treated paraquat group consisted of M17-SYNwt cells treated with paraquat and the test compound dissolved in DMSO.

Cc1ccc(Cc2nsc(N3CCN(C(=O)c4ccccc4)CC3)n2)cc1 [compound 158, 1-benzoyl-4-[3-(4-methylbenzyl)-1,2,4-thiadiazol-5-yl]piperazine]
EC50: 2.1 µM | Emax: 57%

O=C(c1ccccc1)N1CCN(c2nc(Cc3ccc(F)cc3)ns2)CC1 [compound 181, 1-benzoyl-4-[3-(4-fluorobenzyl)-1,2,4-thiadiazol-5-yl]piperazine]
Emax: 60%

Cc1ccccc1C(=O)N1CCN(c2nc(Cc3ccc(F)cc3)ns2)CC1 [compound 152, 1-(2-methylbenzoyl)-4-[3-(4-fluorobenzyl)-1,2,4-thiadiazol-5-yl]piperazine]
EC50: 1.15 µM | Emax: 66%

CC1CN(c2nc(Cc3ccc(F)cc3)ns2)CCN1S(=O)(=O)c1cccc(C(F)(F)F)c1 (centres unmarked) [compound 46, 1-[3-trifluorophenylsulfonyl]-4-[3-(4-fluorobenzyl)-1,2,4-thiadiazol-5-yl]-2-methylpiperazine]
EC50: 1.34 µM | Emax: 64%

CC(C)(C)c1ccc(S(=O)(=O)N2CCN(c3nc(Cc4ccc(F)cc4)ns3)CC2)cc1 [compound 30, 1-[4-tert-butylphenylsulfonyl]-4-[3-(4-fluorobenzyl)-1,2,4-thiadiazol-5-yl]piperazine]
Emax: 51%

CC1CN(c2nc(Cc3ccc(F)cc3)ns2)CCN1C(=O)C(Cl)c1ccccc1 (centres unmarked) [compound 7, 1-[chloro(phenyl)acetyl]-4-[3-(4-fluorobenzyl)-1,2,4-thiadiazol-5-yl]-2-methylpiperazine]
Emax: 69%

COc1ccc(S(=O)(=O)NCCN(C)c2nc(Cc3cccc(OC)c3)ns2)cc1 [compound 213, N′-[4-methoxyphenylsulfonyl]-N-[3-(3-methoxybenzyl)-1,2,4-thiadiazol-5-yl]-N-methylethane-1,2-diamine]
EC50: 0.361 µM | Emax: 94%

O=C(Cc1ccccc1)N1CCN(c2nc(Cc3ccc(F)cc3)ns2)CC1 [compound 1, 4-phenylacetyl-1-[3-(4-fluorobenzyl)-1,2,4-thiadiazol-5-yl]piperazine]
EC50: 0.15 µM | Emax: 75%

Fc1ccc(Cc2nsc(N3CCN(c4ccccc4F)CC3)n2)cc1 [compound 187, 1-(2-fluorophenyl)-4-[3-(4-fluorobenzyl)-1,2,4-thiadiazol-5-yl]piperazine]
EC50: 2.81 µM | Emax: 83%

Cc1ccc(Cc2nsc(N3CCN(C(=O)c4ccc(C(C)(C)C)cc4)CC3)n2)cc1 [compound 183, 1-(4-tert-butylbenzoyl)-4-[3-(4-methylbenzyl)-1,2,4-thiadiazol-5-yl]piperazine]
Emax: 52%

CCCCc1ccc(C(=O)NCCN2CCN(c3nc(Cc4ccc(F)cc4)ns3)CC2)cc1 [compound 95, 4-butyl-N-{2-[4-[3-(4-fluorobenzyl)-1,2,4-thiadiazol-5-yl]piperazin-1-yl]ethyl}benzamide]
EC50: 0.38 µM | Emax: 78%

Cc1ccc(NC(=O)N2CCN(c3nc(Cc4ccc(F)cc4)ns3)CC2C)c(C)c1 (centres unmarked) [compound 20, N-(2,4-dimethylphenyl)-4-[3-(4-fluorobenzyl)-1,2,4-thiadiazol-5-yl]-2-methylpiperazine-1-carboxamide]
EC50: 0.76 µM | Emax: 106%

CCc1ccc(C(=O)N2CCN(c3nc(Cc4ccc(Cl)cc4)ns3)CC2)cc1 [compound 165, 1-(4-ethylbenzoyl)-4-[3-(4-chlorobenzyl)-1,2,4-thiadiazol-5-yl]piperazine]
Emax: 133%

O=C(Nc1ccc(F)c(F)c1)N1CCN(c2nc(Cc3ccc(F)cc3)ns2)CC1 [compound 28, N-(3,4-difluorophenyl)-4-[3-(4-fluorobenzyl)-1,2,4-thiadiazol-5-yl]piperazine-1-carboxamide]
Emax: 64%

O=S(=O)(c1ccc(F)cc1)N1CCN(c2nc(Cc3ccc(Cl)cc3)ns2)CC1 [compound 33, 1-[4-fluorophenylsulfonyl]-4-[3-(4-chlorobenzyl)-1,2,4-thiadiazol-5-yl]piperazine]
EC50: 0.00282 µM | Emax: 53%

Cc1ccc(Cc2nsc(N3CCN(C(=O)c4ccc(Br)cc4)CC3)n2)cc1 [compound 164, 1-(4-bromobenzoyl)-4-[3-(4-methylbenzyl)-1,2,4-thiadiazol-5-yl]piperazine]
EC50: 3.86 µM | Emax: 60%

Cc1ccc(Cc2nsc(N3CCN(C(=O)c4ccc(Cl)cc4)CC3)n2)cc1 [compound 155, 1-(4-chlorobenzoyl)-4-[3-(4-methylbenzyl)-1,2,4-thiadiazol-5-yl]piperazine]
EC50: 1.64 µM | Emax: 76%

COc1cccc(Cc2nsc(N3CCN(C(=O)c4ccccc4F)C(C)C3)n2)c1 (centres unmarked) [compound 115, 1-(2-fluorobenzoyl)-4-[3-(3-methoxybenzyl)-1,2,4-thiadiazol-5-yl]-2-methylpiperazine]
EC50: 0.0361 µM | Emax: 75%

Fc1ccc(Cc2nsc(N3CCN(C/C=C/c4ccccc4)CC3)n2)cc1 [compound 93, 1-[3-phenylprop-2-enyl]-4-[3-(4-fluorobenzyl)-1,2,4-thiadiazol-5-yl]piperazine]
EC50: 1.99 µM | Emax: 91%

CCc1ccc(C(=O)N2CCN(c3nc(Cc4ccc(C)cc4)ns3)CC2C)cc1 (centres unmarked) [compound 147, 1-(4-ethylbenzoyl)-4-[3-(4-methylbenzyl)-1,2,4-thiadiazol-5-yl]-2-methylpiperazine]
EC50: 0.84 µM | Emax: 88%

Cc1ccccc1NC(=O)N1CCN(c2nc(Cc3ccc(F)cc3)ns2)CC1C (centres unmarked) [compound 10, N-(2-methylphenyl)-4-[3-(4-fluorobenzyl)-1,2,4-thiadiazol-5-yl]-2-methylpiperazine-1-carboxamide]
EC50: 0.6 µM | Emax: 72%

O=C(NCCN1CCN(c2nc(Cc3ccc(F)cc3)ns2)CC1)c1ccc(Cl)cc1 [compound 97, 4-chloro-N-{2-[4-[3-(4-fluorobenzyl)-1,2,4-thiadiazol-5-yl]piperazin-1-yl]ethyl}benzamide]
EC50: 1.29 µM | Emax: 68%

O=S(=O)(c1ccccc1)N1CCN(c2nc(Cc3ccc(F)cc3)ns2)CC1 [compound 198, 1-phenylsulfonyl-4-[3-(4-fluoro-benzyl)-1,2,4-thiadiazol-5-yl]piperazine]
EC50: 0.349 µM | Emax: 25%

Cc1ccc(Cc2nsc(N3CCN(CCNC(=O)Cc4ccc(F)cc4)CC3)n2)cc1 [compound 109, 2-(4-fluorophenyl)-N-{2-[4-[3-(4-methylbenzyl)-1,2,4-thiadiazol-5-yl]piperazin-1-yl]ethyl}acetamide]
EC50: 3.52 µM | Emax: 93%

COc1ccc(C(=O)N2CCN(c3nc(Cc4ccc(F)cc4)ns3)CC2C)c(OC)c1 (centres unmarked) [compound 136, 1-(2,4-dimethoxybenzoyl)-4-[3-(4-fluorobenzyl)-1,2,4-thiadiazol-5-yl]-2-methylpiperazine]
EC50: 0.34 µM | Emax: 83%

CCCCc1ccc(C(=O)N2CCN(c3nc(Cc4ccc(C)cc4)ns3)CC2)cc1 [compound 182, 1-(4-butylbenzoyl)-4-[3-(4-methylbenzyl)-1,2,4-thiadiazol-5-yl]piperazine]
Emax: 57%

CCc1ccc(C(=O)N2CCN(c3nc(Cc4cccc(OC)c4)ns3)CC2C)cc1 (centres unmarked) [compound 143, 1-(4-ethylbenzoyl)-4-[3-(3-methoxybenzyl)-1,2,4-thiadiazol-5-yl]-2-methylpiperazine]
EC50: 0.56 µM | Emax: 89%

CCOc1ccc(S(=O)(=O)N2CCN(c3nc(Cc4ccc(F)cc4)ns3)CC2)cc1 [compound 196, 1-[4-ethoxyphenylsulfonyl]-4-[3-(4-fluoro-benzyl)-1,2,4-thiadiazol-5-yl]piperazine]
EC50: 0.0176 µM | Emax: 42%

O=C(c1ccc(Cl)cc1)N1CCCN(c2nc(Cc3ccc(F)cc3)ns2)CC1 [compound 189, 1-(4-chlorobenzoyl)-4-[3-(4-fluorobenzyl)-1,2,4-thiadiazol-5-yl]-1,4-diazepane]
EC50: 0.17 µM | Emax: 85%

Clc1ccc(Cc2nsc(N3CCN(C/C=C/c4ccccc4)CC3)n2)cc1 [compound 92, 1-[3-phenylprop-2-enyl]-4-[3-(4-chlorobenzyl)-1,2,4-thiadiazol-5-yl]piperazine]
EC50: 0.75 µM | Emax: 69%

CCc1ccc(C(=O)N2CCN(c3nc(Cc4ccc(C)cc4)ns3)CC2)cc1 [compound 131, 1-(4-ethylbenzoyl)-4-[3-(4-methylbenzyl)-1,2,4-thiadiazol-5-yl]piperazine]
EC50: 0.25 µM | Emax: 91%

CC(=O)Nc1ccc(S(=O)(=O)N2CCN(c3nc(Cc4ccc(F)cc4)ns3)CC2C)cc1 (centres unmarked) [compound 55, 1-[4-acetamidophenylsulfonyl]-4-[3-(4-fluorobenzyl)-1,2,4-thiadiazol-5-yl]-2-methylpiperazine]
EC50: 0.0781 µM | Emax: 114%

CC1CN(c2nc(Cc3ccc(Cl)cc3)ns2)CCN1S(=O)(=O)c1cccc2ccccc12 (centres unmarked) [compound 43, 1-[1-naphtylsulfonyl]-4-[3-(4-chlorobenzyl)-1,2,4-thiadiazol-5-yl]-2-methylpiperazine]
EC50: 0.89 µM | Emax: 35%

Cc1ccc(C(=O)N2CCCN(c3nc(Cc4ccc(F)cc4)ns3)CC2)cc1 [compound 190, 1-(4-methylbenzoyl)-4-[3-(4-fluorobenzyl)-1,2,4-thiadiazol-5-yl]-1,4-diazepane]
EC50: 2.77 µM | Emax: 87%

Cc1ccc(Cc2nsc(N3CCN(S(=O)(=O)c4ccc(F)cc4)CC3)n2)cc1 [compound 57, 1-[4-fluorophenylsulfonyl]-4-[3-(4-methylbenzyl)-1,2,4-thiadiazol-5-yl]piperazine]
EC50: 0.0104 µM | Emax: 88%

CCCCc1ccc(C(=O)N2CCN(c3nc(Cc4ccc(F)cc4)ns3)CC2C)cc1 (centres unmarked) [compound 120, 1-(4-butylbenzoyl)-4-[3-(4-fluorobenzyl)-1,2,4-thiadiazol-5-yl]-2-methylpiperazine]
EC50: 0.0987 µM | Emax: 120%

CC1CN(c2nc(Cc3ccc(F)cc3)ns2)CCN1C(=O)c1ccc2c(c1)OCO2 (centres unmarked) [compound 178, 1-(1,3-benzodioxol-5-ylcarbonyl)-4-[3-(4-fluorobenzyl)-1,2,4-thiadiazol-5-yl]-2-methylpiperazine]
Emax: 68%

CC(=O)Nc1ccc(S(=O)(=O)N2CCN(c3nc(Cc4ccc(C)cc4)ns3)CC2C)cc1 (centres unmarked) [compound 48, 1-[4-acetamidophenylsulfonyl]-4-[3-(4-methylbenzyl)-1,2,4-thiadiazol-5-yl]-2-methylpiperazine]
EC50: 0.00844 µM | Emax: 91%
